Data as given in patent US20240217957A1, “HETEROCYCLIC COMPOUND AND USE THEREOF” (TAKEDA PHARMACEUTICAL COMPANY LIMITED, priority 2022, published 2024).

Biological target: T1, human OX2 receptor (Homo sapiens, UniProt O43614)
T1 construct: expressed in transfected cells
T1 sequence (O43614 1-444): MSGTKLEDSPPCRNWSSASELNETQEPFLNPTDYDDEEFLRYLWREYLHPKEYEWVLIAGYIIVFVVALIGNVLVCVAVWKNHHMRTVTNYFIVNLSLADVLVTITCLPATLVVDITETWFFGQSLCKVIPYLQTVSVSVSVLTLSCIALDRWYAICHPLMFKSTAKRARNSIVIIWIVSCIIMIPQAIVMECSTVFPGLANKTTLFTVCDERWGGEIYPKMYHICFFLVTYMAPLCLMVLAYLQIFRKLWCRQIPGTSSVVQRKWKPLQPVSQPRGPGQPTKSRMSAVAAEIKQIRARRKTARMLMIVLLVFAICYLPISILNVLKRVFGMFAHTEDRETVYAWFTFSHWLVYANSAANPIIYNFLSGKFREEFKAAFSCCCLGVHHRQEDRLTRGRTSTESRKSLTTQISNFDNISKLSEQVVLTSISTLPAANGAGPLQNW
Test: Measurement of orexin type 2 receptor agonist activity (calcium fluorescence, Fluo-4 AM, FDSS)
Assay type: cell-based
Settings: compound at 3 μM; CHO cells forcibly expressing human OX2 receptor; DMSO = 0%, 10 nM orexin A (human) = 100%
Method: In order to obtain cell clones that stably express human orexin type 2 receptor, human orexin type 2 (residues 1-444, NCBI Reference Sequence: AK314279) was constructed in a pcDNA3.1 (+) vector (Invitrogen) to express in mammalian cells. This plasmid DNA was transfected into CHO-K1 cells by electroporation, and stable clones were obtained by limiting dilution using resistance to G418 as a selection marker.
CHO cells in which human OX2 receptor was forcibly expressed were seeded at 10,000 cells/well into a 384-well black transparent bottom plate (BD falcon), and were incubated at 37° C., 5% CO2 for 1 day after incubation at room temperature for 30 minutes. After removing the cell plate medium, assay buffer containing calcium indicator A (HBSS (Thermo Fisher Scientific), 20 mM HEPES (Thermo Fisher Scientific), 0.1% BSA (Sigma-Aldrich), 2.5 μg/mL Fluo-4 AM (Dojin Kagaku), 0.08% Pluronic F127 (Dojin Kagaku), 1.25 mM probenecid (Dojin Kagaku)) was added at 30 μL/well. After incubation in a 5% CO2 incubator at 37° C. for 30 minutes, it was incubated at room temperature for another 30 minutes. Add 10 μL/well of the test compound diluted with assay buffer B (HBSS, 20 mM HEPES, 0.1% BSA), and use FDSS uCELL (Hamamatsu Photonics) to measure the fluorescence value every 1 second for 1 minute, and then every 2 seconds for […]. It was measured for 1 minute and 40 seconds. The amount of fluorescence value when DMSO is added instead of the test compound is defined as 0%, and the amount of fluorescence value when orexin A (human) (Peptide Institute) with a final concentration of 10 nM is added is defined as 100%. The activity (%) of the test compound was calculated.

Compound	OX2R agonist activity (3 μM, %)
Cc1cnc([C@@H]2CC(N3C[C@@H](NS(=O)(=O)C4CC4)C(F)(F)C3)=NO2)c(-c2c(F)cccc2F)c1 [Example 33, N-[(3R)-1-{(5S)-5-[3-(2,6-difluorophenyl)-5-methylpyridin-2-yl]-4,5-dihydro-1,2-oxazol-3-yl}-4,4-difluoropyrrolidin-3-yl]cyclopropanesulfonamide]	102%
CCS(=O)(=O)N[C@@H]1CN(C2=NOC(c3ncc(F)cc3-c3c(F)cc(F)cc3F)C2)CC1(F)F (stereo partly drawn) [Example 34, N-[(3R)-4,4-difluoro-1-{5-[5-fluoro-3-(2,4,6-trifluorophenyl)pyridin-2-yl]-4,5-dihydro-1,2-oxazol-3-yl}pyrrolidin-3-yl]ethanesulfonamide]	105%
CN(C)S(=O)(=O)N[C@H]1CCN(C2=NOC(c3ncccc3-c3c(F)cc(F)cc3F)C2)C1 (stereo partly drawn) [Example 35, N,N-dimethyl-N′-[(3S)-1-{5-[3-(2,4,6-trifluorophenyl)pyridin-2-yl]-4,5-dihydro-1,2-oxazol-3-yl}pyrrolidin-3-yl]sulfuric diamide]	92%
O=S(=O)(CF)N[C@H]1CCN(C2=NOC(c3ncc(F)cc3-c3c(F)cc(F)cc3F)C2)C1 (stereo partly drawn) [Example 36, 1-fluoro-N-[(3S)-1-{5-[5-fluoro-3-(2,4,6-trifluorophenyl)pyridin-2-yl]-4,5-dihydro-1,2-oxazol-3-yl}pyrrolidin-3-yl]methanesulfonamide]	103%
Cc1cnc([C@@H]2CC(N3CC[C@H](NS(=O)(=O)C(F)F)C3)=NO2)c(-c2c(F)cccc2F)c1 [Example 37, N-[(3S)-1-{(5S)-5-[3-(2,6-difluorophenyl)-5-methylpyridin-2-yl]-4,5-dihydro-1,2-oxazol-3-yl}pyrrolidin-3-yl]-1,1-difluoromethanesulfonamide]	103%
Cc1cnc([C@@H]2CC(N3CC[C@H](NS(=O)(=O)CF)C3)=NO2)c(-c2c(F)cccc2F)c1 [Example 38, N-[(3S)-1-{(5S)-5-[3-(2,6-difluorophenyl)-5-methylpyridin-2-yl]-4,5-dihydro-1,2-oxazol-3-yl}pyrrolidin-3-yl]-1-fluoromethanesulfonamide]	104%
CS(=O)(=O)N[C@@H]1CN(C2=NOC(c3ncc(Cl)cc3-c3c(F)cc(F)cc3F)C2)CC1(F)F (stereo partly drawn) [Example 39, N-[(3R)-1-{5-[5-chloro-3-(2,4,6-trifluorophenyl)pyridin-2-yl]-4,5-dihydro-1,2-oxazol-3-yl}-4,4-difluoropyrrolidin-3-yl]methanesulfonamide]	97%
CS(=O)(=O)N[C@@H]1CN(C2=NOC(c3ncc(Br)cc3-c3c(F)cc(F)cc3F)C2)CC1(F)F (stereo partly drawn) [Example 40, N-[(3R)-1-{5-[5-bromo-3-(2,4,6-trifluorophenyl)pyridin-2-yl]-4,5-dihydro-1,2-oxazol-3-yl}-4,4-difluoropyrrolidin-3-yl]methanesulfonamide]	103%
CS(=O)(=O)N[C@@H]1CN(C2=NOC(c3ncc(C(F)F)cc3-c3c(F)cc(F)cc3F)C2)CC1(F)F (stereo partly drawn) [Example 41, N-[(3R)-1-{5-[5-(difluoromethyl)-3-(2,4,6-trifluorophenyl)pyridin-2-yl]-4,5-dihydro-1,2-oxazol-3-yl}-4,4-difluoropyrrolidin-3-yl]methanesulfonamide]	107%
CCS(=O)(=O)N[C@@H]1CN(C2=NOC(c3ncc(Cl)cc3-c3c(F)cc(F)cc3F)C2)CC1(F)F (stereo partly drawn) [Example 42, N-[(3R)-1-{5-[5-chloro-3-(2,4,6-trifluorophenyl)pyridin-2-yl]-4,5-dihydro-1,2-oxazol-3-yl}-4,4-difluoropyrrolidin-3-yl]ethanesulfonamide]	100%
CCS(=O)(=O)N[C@@H]1CN(C2=NO[C@H](c3ncc(Br)cc3-c3c(F)cc(F)cc3F)C2)CC1(F)F [Example 43, N-[(3R)-1-{5-[5-bromo-3-(2,4,6-trifluorophenyl)pyridin-2-yl]-4,5-dihydro-1,2-oxazol-3-yl}-4,4-difluoropyrrolidin-3-yl]ethanesulfonamide]	103%
Cc1cnc([C@@H]2CC(N3C[C@@H](F)[C@H](NS(C)(=O)=O)C3)=NO2)c(-c2c(F)cccc2F)c1 [Example 44, N-[(3R,4R)-1-{(5S)-5-[3-(2,6-difluorophenyl)-5-methylpyridin-2-yl]-4,5-dihydro-1,2-oxazol-3-yl}-4-fluoropyrrolidin-3-yl]methanesulfonamide]	95%
Cc1cnc([C@@H]2CC(N3CC[C@H](NS(C)(=O)=O)C3)=NO2)c(-c2c(F)cc(F)cc2F)c1 [Example 45, N-[(3S)-1-{(5S)-5-[5-methyl-3-(2,4,6-trifluorophenyl)pyridin-2-yl]-4,5-dihydro-1,2-oxazol-3-yl}pyrrolidin-3-yl]methanesulfonamide]	101%
Cc1cnc([C@@H]2CC(N3CC[C@H](NS(=O)(=O)C4(F)CC4)C3)=NO2)c(-c2c(F)cc(F)cc2F)c1 [Example 46, 1-fluoro-N-[(3S)-1-{(5S)-5-[5-methyl-3-(2,4,6-trifluorophenyl)pyridin-2-yl]-4,5-dihydro-1,2-oxazol-3-yl}pyrrolidin-3-yl]cyclopropane-1-sulfonamide]	99%
CCS(=O)(=O)N[C@@H]1CN(C2=NO[C@H](c3ncc(C)cc3-c3c(F)cc(F)cc3F)C2)CC1(F)F [Example 47, N-[(3R)-4,4-difluoro-1-{(5S)-5-[5-methyl-3-(2,4,6-trifluorophenyl)pyridin-2-yl]-4,5-dihydro-1,2-oxazol-3-yl}pyrrolidin-3-yl]ethanesulfonamide]	93%
Cc1cnc([C@@H]2CC(N3C[C@@H](F)[C@H](NS(C)(=O)=O)C3)=NO2)c(-c2c(F)cc(F)cc2F)c1 [Example 48, N-[(3R,4R)-4-fluoro-1-{(5S)-5-[5-methyl-3-(2,4,6-trifluorophenyl)pyridin-2-yl]-4,5-dihydro-1,2-oxazol-3-yl}pyrrolidin-3-yl]methanesulfonamide]	94%
CS(=O)(=O)N[C@@H]1CN(C2=NOC(c3ncc(Cl)cc3-c3c(F)cccc3F)C2)CC1(F)F (stereo partly drawn) [Example 49, N-[(3R)-1-{5-[5-chloro-3-(2,6-difluorophenyl)pyridin-2-yl]-4,5-dihydro-1,2-oxazol-3-yl}-4,4-difluoropyrrolidin-3-yl]methanesulfonamide]	95%
Cc1ccc([C@@H]2CC(N3CC[C@H](NS(C)(=O)=O)C3)=NO2)c(-c2ncc(F)cc2F)c1 [Example 50, N-[(3S)-1-{5-[2-(3,5-difluoropyridin-2-yl)-4-methylphenyl]-4,5-dihydro-1,2-oxazol-3-yl}pyrrolidin-3-yl]methanesulfonamide]	99%
CS(=O)(=O)N[C@@H]1CN(C2=NOC(c3ncc(Br)cc3-c3c(F)cccc3F)C2)CC1(F)F (stereo partly drawn) [Example 52, N-[(3R)-1-{5-[5-bromo-3-(2,6-difluorophenyl)pyridin-2-yl]-4,5-dihydro-1,2-oxazol-3-yl}-4,4-difluoropyrrolidin-3-yl]methanesulfonamide]	93%
Cc1cnc([C@@H]2CC(N3C[C@@H](NS(C)(=O)=O)C(F)(F)C3)=NO2)c(-c2c(F)cc(Cl)cc2F)c1 [Example 53, N-[(3R)-1-{5-[3-(4-chloro-2,6-difluorophenyl)-5-methylpyridin-2-yl]-4,5-dihydro-1,2-oxazol-3-yl}-4,4-difluoropyrrolidin-3-yl]methanesulfonamide]	98%
Cc1cnc([C@@H]2CC(N3C[C@@H](NS(C)(=O)=O)C(F)(F)C3)=NO2)c(-c2c(F)ccc(F)c2F)c1 [Example 54, N-[(3R)-4,4-difluoro-1-{5-[5-methyl-3-(2,3,6-trifluorophenyl)pyridin-2-yl]-4,5-dihydro-1,2-oxazol-3-yl}pyrrolidin-3-yl]methanesulfonamide]	92%
Cc1cnc([C@@H]2CC(N3C[C@@H](NS(=O)(=O)C4CC4)C(F)(F)C3)=NO2)c(-c2c(F)cc(F)cc2F)c1 [Example 55, N-[(3R)-4,4-difluoro-1-{(5S)-5-[5-methyl-3-(2,4,6-trifluorophenyl)pyridin-2-yl]-4,5-dihydro-1,2-oxazol-3-yl}pyrrolidin-3-yl]cyclopropanesulfonamide]	104%
